{
  "source": "ChEMBL document CHEMBL1201862",
  "about": "“PubChem BioAssay data set” (2004)",
  "test_in_all_cases": "growth of human tumour cells (NCI), 48 h",
  "key": {"CCRF-CEM": {"test_system": "CCRF-CEM"}, "DMS-273": {"test_system": "DMS-273"}, "EKVX": {"test_system": "EKVX"}, "HCT-116": {"test_system": "HCT-116"}, "HOP-62": {"test_system": "HOP-62"}, "HT-29": {"test_system": "HT-29"}, "MDA-MB-231": {"test_system": "MDA-MB-231"}, "MDA-MB-435": {"test_system": "MDA-MB-435"}, "MDA-N": {"test_system": "MDA-N"}, "NCI-H226": {"test_system": "NCI-H226"}, "OVCAR-3": {"test_system": "OVCAR-3"}, "OVCAR-5": {"test_system": "OVCAR-5"}, "SF-268": {"test_system": "SF-268"}, "SK-MEL-2": {"test_system": "SK-MEL-2"}, "SN12C": {"test_system": "SN12C"}, "SNB-19": {"test_system": "SNB-19"}, "SNB-75": {"test_system": "SNB-75"}, "SR": {"test_system": "SR"}, "T47D": {"test_system": "T47D"}, "U-251": {"test_system": "U-251"}},
  "note": "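Growth conditions: 96-well plates. Treatment: test compound, 48 hours, 5 concentrations. Analysis: linear interpolation between bracketing concentrations; unreached endpoints set to highest concentration. GI50 is the concentration that inhibits growth by half.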 Active and inactive are the calls of the source. Cut-off read from the data, not from the text of the source: active = GI50 up to about 1.1 µM and inactive = higher.",
  "data": [
    {"smiles": "Cc1c(CCCl)c(Cl)n2c(nc3ccccc32)c1C#N", "values": [
      {"measurement": "GI50", "setting": "CCRF-CEM", "result": "0.045 µM (active)"},
      {"measurement": "GI50", "setting": "DMS-273", "result": "0.457 µM (active)"},
      {"measurement": "GI50", "setting": "EKVX", "result": "3.21 µM (inactive)"},
      {"measurement": "GI50", "setting": "HCT-116", "result": "0.229 µM (active)"},
      {"measurement": "GI50", "setting": "HOP-62", "result": "2 µM (inactive)"},
      {"measurement": "GI50", "setting": "HT-29", "result": "1.42 µM (inactive)"},
      {"measurement": "GI50", "setting": "MDA-MB-231", "result": "1.32 µM (inactive)"},
      {"measurement": "GI50", "setting": "MDA-MB-435", "result": "0.796 µM (active)"},
      {"measurement": "GI50", "setting": "MDA-N", "result": "0.826 µM (active)"},
      {"measurement": "GI50", "setting": "NCI-H226", "result": "1.38 µM (inactive)"},
      {"measurement": "GI50", "setting": "OVCAR-3", "result": "1.35 µM (inactive)"},
      {"measurement": "GI50", "setting": "OVCAR-5", "result": "1.63 µM (inactive)"},
      {"measurement": "GI50", "setting": "SF-268", "result": "1.49 µM (inactive)"},
      {"measurement": "GI50", "setting": "SK-MEL-2", "result": "1.06 µM (active)"},
      {"measurement": "GI50", "setting": "SN12C", "result": "0.423 µM (active)"},
      {"measurement": "GI50", "setting": "SNB-19", "result": "1.89 µM (inactive)"},
      {"measurement": "GI50", "setting": "SNB-75", "result": "3.38 µM (inactive)"},
      {"measurement": "GI50", "setting": "SR", "result": "0.112 µM (active)"},
      {"measurement": "GI50", "setting": "T47D", "result": "1.38 µM (inactive)"},
      {"measurement": "GI50", "setting": "U-251", "result": "0.986 µM (active)"}
    ]},
    {"smiles": "Cc1cc2c3ccccc3n(C)c2c2c1C(=O)C=CC2=O", "values": [
      {"measurement": "GI50", "setting": "CCRF-CEM", "result": "2.42 µM (inactive)"},
      {"measurement": "GI50", "setting": "DMS-273", "result": "13.3 µM (inactive)"},
      {"measurement": "GI50", "setting": "EKVX", "result": "12 µM (inactive)"},
      {"measurement": "GI50", "setting": "HCT-116", "result": "20 µM (inactive)"},
      {"measurement": "GI50", "setting": "HOP-62", "result": "22.4 µM (inactive)"},
      {"measurement": "GI50", "setting": "HT-29", "result": "9.62 µM (inactive)"},
      {"measurement": "GI50", "setting": "MDA-MB-231", "result": "15.3 µM (inactive)"},
      {"measurement": "GI50", "setting": "MDA-MB-435", "result": "18.9 µM (inactive)"},
      {"measurement": "GI50", "setting": "MDA-N", "result": "12.9 µM (inactive)"},
      {"measurement": "GI50", "setting": "NCI-H226", "result": "21.2 µM (inactive)"},
      {"measurement": "GI50", "setting": "OVCAR-3", "result": "15 µM (inactive)"},
      {"measurement": "GI50", "setting": "OVCAR-5", "result": "21.1 µM (inactive)"},
      {"measurement": "GI50", "setting": "SF-268", "result": "17.2 µM (inactive)"},
      {"measurement": "GI50", "setting": "SK-MEL-2", "result": "18.1 µM (inactive)"},
      {"measurement": "GI50", "setting": "SN12C", "result": "18.1 µM (inactive)"},
      {"measurement": "GI50", "setting": "SNB-19", "result": "28.5 µM (inactive)"},
      {"measurement": "GI50", "setting": "SNB-75", "result": "27 µM (inactive)"},
      {"measurement": "GI50", "setting": "SR", "result": "4.68 µM (inactive)"},
      {"measurement": "GI50", "setting": "T47D", "result": "3.39 µM (inactive)"},
      {"measurement": "GI50", "setting": "U-251", "result": "17.3 µM (inactive)"}
    ]},
    {"smiles": "COc1ccc(N2C(=O)[C@H]3[C@H]4CC(C(C)(C)C)CC[C@H]4c4c(n(C)c5ccccc45)[C@H]3C2=O)cc1", "note": "(some centres not stated)", "values": [
      {"measurement": "GI50", "setting": "CCRF-CEM", "result": "> 100 µM (inactive)"},
      {"measurement": "GI50", "setting": "DMS-273", "result": "> 100 µM (inactive)"},
      {"measurement": "GI50", "setting": "EKVX", "result": "> 46.5 µM (inactive)"},
      {"measurement": "GI50", "setting": "HCT-116", "result": "> 100 µM (inactive)"},
      {"measurement": "GI50", "setting": "HOP-62", "result": "> 5.62 µM (inactive)"},
      {"measurement": "GI50", "setting": "HT-29", "result": "> 100 µM (inactive)"},
      {"measurement": "GI50", "setting": "MDA-MB-231", "result": "> 100 µM (inactive)"},
      {"measurement": "GI50", "setting": "MDA-MB-435", "result": "> 100 µM (inactive)"},
      {"measurement": "GI50", "setting": "MDA-N", "result": "> 100 µM (inactive)"},
      {"measurement": "GI50", "setting": "NCI-H226", "result": "> 100 µM (inactive)"},
      {"measurement": "GI50", "setting": "OVCAR-3", "result": "> 100 µM (inactive)"},
      {"measurement": "GI50", "setting": "OVCAR-5", "result": "> 10 µM (inactive)"},
      {"measurement": "GI50", "setting": "SF-268", "result": "> 100 µM (inactive)"},
      {"measurement": "GI50", "setting": "SK-MEL-2", "result": "> 4.65 µM (inactive)"},
      {"measurement": "GI50", "setting": "SN12C", "result": "> 56.2 µM (inactive)"},
      {"measurement": "GI50", "setting": "SNB-19", "result": "> 100 µM (inactive)"},
      {"measurement": "GI50", "setting": "SNB-75", "result": "> 87.7 µM (inactive)"},
      {"measurement": "GI50", "setting": "SR", "result": "> 100 µM (inactive)"},
      {"measurement": "GI50", "setting": "T47D", "result": "> 100 µM (inactive)"},
      {"measurement": "GI50", "setting": "U-251", "result": "> 56.2 µM (inactive)"}
    ]},
    {"smiles": "COc1ccc(C2=C[C@]3(O)CCCN3C[C@@H]2c2ccc(OC)c(OC)c2)cc1", "values": [
      {"measurement": "GI50", "setting": "CCRF-CEM", "result": "< 0.0001 µM (active)"},
      {"measurement": "GI50", "setting": "DMS-273", "result": "< 0.0001 µM (active)"},
      {"measurement": "GI50", "setting": "EKVX", "result": "< 0.0001 µM (active)"},
      {"measurement": "GI50", "setting": "HCT-116", "result": "< 0.0001 µM (active)"},
      {"measurement": "GI50", "setting": "HOP-62", "result": "< 0.0001 µM (active)"},
      {"measurement": "GI50", "setting": "HT-29", "result": "< 0.0001 µM (active)"},
      {"measurement": "GI50", "setting": "NCI-H226", "result": "< 0.0001 µM (active)"},
      {"measurement": "GI50", "setting": "OVCAR-3", "result": "< 0.0001 µM (active)"},
      {"measurement": "GI50", "setting": "OVCAR-5", "result": "< 0.0001 µM (active)"},
      {"measurement": "GI50", "setting": "SF-268", "result": "< 0.0001 µM (active)"},
      {"measurement": "GI50", "setting": "SK-MEL-2", "result": "< 0.0001 µM (active)"},
      {"measurement": "GI50", "setting": "SN12C", "result": "< 0.0001 µM (active)"},
      {"measurement": "GI50", "setting": "SNB-19", "result": "< 0.0001 µM (active)"},
      {"measurement": "GI50", "setting": "SNB-75", "result": "< 0.0001 µM (active)"},
      {"measurement": "GI50", "setting": "SR", "result": "< 0.0001 µM (active)"},
      {"measurement": "GI50", "setting": "U-251", "result": "< 0.0001 µM (active)"}
    ]},
    {"smiles": "[O-][S+]1CSCS1", "note": "(configuration not stated)", "values": [
      {"measurement": "GI50", "setting": "CCRF-CEM", "result": "> 100 µM (inactive)"},
      {"measurement": "GI50", "setting": "DMS-273", "result": "> 100 µM (inactive)"},
      {"measurement": "GI50", "setting": "EKVX", "result": "> 100 µM (inactive)"},
      {"measurement": "GI50", "setting": "HCT-116", "result": "> 100 µM (inactive)"},
      {"measurement": "GI50", "setting": "HOP-62", "result": "> 100 µM (inactive)"},
      {"measurement": "GI50", "setting": "HT-29", "result": "> 100 µM (inactive)"},
      {"measurement": "GI50", "setting": "NCI-H226", "result": "> 100 µM (inactive)"},
      {"measurement": "GI50", "setting": "OVCAR-3", "result": "> 100 µM (inactive)"},
      {"measurement": "GI50", "setting": "OVCAR-5", "result": "> 100 µM (inactive)"},
      {"measurement": "GI50", "setting": "SF-268", "result": "> 100 µM (inactive)"},
      {"measurement": "GI50", "setting": "SK-MEL-2", "result": "> 100 µM (inactive)"},
      {"measurement": "GI50", "setting": "SN12C", "result": "> 100 µM (inactive)"},
      {"measurement": "GI50", "setting": "SNB-19", "result": "> 100 µM (inactive)"},
      {"measurement": "GI50", "setting": "SNB-75", "result": "> 100 µM (inactive)"},
      {"measurement": "GI50", "setting": "SR", "result": "> 100 µM (inactive)"},
      {"measurement": "GI50", "setting": "U-251", "result": "> 100 µM (inactive)"}
    ]}
  ]
}
